Assay results: patent publication US20240173432A1, “Compositions and Methods for Treatment of Myotonic Dystrophy Type 1 with CRISPR/SluCas9” (Vertex Pharmaceuticals Incorporated, priority 2021, published 2024)

Assays:
[1] = system: CTG repeat in the 3′ UTR of human DMPK gene; test: Dual-cut screening: CTG repeat excision efficiency by loss-of-signal ddPCR; format: cell-based; conditions: sgRNA pair, primary DM1 patient myoblasts; for Excision efficiency (by ddPCR): 3 μM DNA-PKi Compound 6 for 48 hours; for Excision efficiency by ddPCR (Vehicle): vehicle (DMSO)
How it was run: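 Upstream and downstream SluCas9 RNPs (20 pmol protein, 60 pmol sgRNA each) mixed 1:1 and nucleofected into primary DM1 patient myoblasts, then treated 48 h with DMSO or 3 μM DNA-PKi Compound 6. Genomic DNA taken 72 h post-nucleofection; excision read as loss of target signal by ddPCR versus a DMPK exon 1 reference.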

[2] = system: CUG foci in primary DM1 patient myoblasts; test: Dual-cut screening: FISH staining of CUG RNA foci; format: cell-based, human; conditions: sgRNA pair, primary DM1 patient myoblasts; for % of CUG foci free nuclei (DNA-PKi): 3 μM DNA-PKi Compound 6 for 48 hours; for % of CUG foci free nuclei (Vehicle): vehicle (DMSO)
How it was run: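 SluCas9 RNPs (protein:sgRNA 1:3; 20 pmol SluCas9 + 60 pmol sgRNA per guide, paired 1:1) nucleofected into primary DM1 patient myoblasts, then DMSO or 3 μM DNA-PKi Compound 6 for 48 h. At 72 h post-nucleofection cells fixed, FISH-stained with Cy3-PNA(CAG)5 probe plus anti-MBNL1 and Hoechst; % CUG foci-free nuclei by high-content confocal imaging.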

Row | Substance | Excision efficiency (by ddPCR) [1] | Excision efficiency by ddPCR (Vehicle) [1] | % of CUG foci free nuclei (DNA-PKi) [2] [%] | % of CUG foci free nuclei (Vehicle) [2] [%]
1 | SluU62 + SluD48 (guide 1 AGGACCCTTCGAGCCCCGTTCG; guide 2 GAGAGCAGCGCAAGTGAGGAGG; guide RNA; listed as DNA, chemistry not fully specified) | 66.36 | 35.6 | 88.08 | 54.22
2 | SluU62 + SluD56 (guide 1 AGGACCCTTCGAGCCCCGTTCG; guide 2 CCAGCCGGCTCCGCCCGCTTCG; guide RNA; listed as DNA, chemistry not fully specified) | 61.21 | 32.08 | 84.3 | 36.42
3 | SluU62 + SluD68 (guide 1 AGGACCCTTCGAGCCCCGTTCG; guide 2 CCTGTAGCCTGTCAGCGAGTCG; guide RNA; listed as DNA, chemistry not fully specified) | 63.55 | 33.08 | 87.71 | 49.06
4 | SluU62 + SluD73 (guide 1 AGGACCCTTCGAGCCCCGTTCG; guide 2 CCAAAACGTGGATTGGGGTTGT; guide RNA; listed as DNA, chemistry not fully specified) | 65.89 | 38.11 | 88.13 | 52.87
5 | SluU62 + SluD83 (guide 1 AGGACCCTTCGAGCCCCGTTCG; guide 2 GTGGGGACAGACAATAAATACC; guide RNA; listed as DNA, chemistry not fully specified) | 68.69 | 43.14 | 88.94 | 56.65
6 | SluU62 + SluD100 (guide 1 AGGACCCTTCGAGCCCCGTTCG; guide 2 GTCCAGAGCTTTGGGCAGATGG; guide RNA; listed as DNA, chemistry not fully specified) | 64.02 | 37.11 | 88.35 | 53.45
7 | SluU63 + SluD32 (guide 1 GGGGCTCGAAGGGTCCTTGTAG; guide 2 CTTGTGCATGACGCCCTGCTCT; guide RNA; listed as DNA, chemistry not fully specified) | 94.81 | 60.75 | 89.04 | 75.26
8 | SluU63 + SluD34 (guide 1 GGGGCTCGAAGGGTCCTTGTAG; guide 2 CGCGCCAGACGCTCCCCAGAGC; guide RNA; listed as DNA, chemistry not fully specified) | 93.5 | 63.27 | 87.25 | 77.85
9 | SluU63 + SluD48 (guide 1 GGGGCTCGAAGGGTCCTTGTAG; guide 2 GAGAGCAGCGCAAGTGAGGAGG; guide RNA; listed as DNA, chemistry not fully specified) | 94.25 | 63.77 | 90.03 | 73.73
10 | SluU63 + SluD56 (guide 1 GGGGCTCGAAGGGTCCTTGTAG; guide 2 CCAGCCGGCTCCGCCCGCTTCG; guide RNA; listed as DNA, chemistry not fully specified) | 90.05 | 50.69 | 88.12 | 60.91
11 | SluU63 + SluD68 (guide 1 GGGGCTCGAAGGGTCCTTGTAG; guide 2 CCTGTAGCCTGTCAGCGAGTCG; guide RNA; listed as DNA, chemistry not fully specified) | 93.64 | 57.23 | 90.625 | 71.74
12 | SluU63 + SluD73 (guide 1 GGGGCTCGAAGGGTCCTTGTAG; guide 2 CCAAAACGTGGATTGGGGTTGT; guide RNA; listed as DNA, chemistry not fully specified) | 95.51 | 63.27 | 90.58 | 70.03
13 | SluU63 + SluD83 (guide 1 GGGGCTCGAAGGGTCCTTGTAG; guide 2 GTGGGGACAGACAATAAATACC; guide RNA; listed as DNA, chemistry not fully specified) | 93.27 | 58.74 | 89.8 | 74.11
14 | SluU63 + SluD100 (guide 1 GGGGCTCGAAGGGTCCTTGTAG; guide 2 GTCCAGAGCTTTGGGCAGATGG; guide RNA; listed as DNA, chemistry not fully specified) | 91.5 | 58.24 | 89.97 | 73.15
15 | SluU64 + SluD32 (guide 1 GGGCTCGAAGGGTCCTTGTAGC; guide 2 CTTGTGCATGACGCCCTGCTCT; guide RNA; listed as DNA, chemistry not fully specified) | 85.56 | 60.75 | 89.99 | 77.6
16 | SluU64 + SluD34 (guide 1 GGGCTCGAAGGGTCCTTGTAGC; guide 2 CGCGCCAGACGCTCCCCAGAGC; guide RNA; listed as DNA, chemistry not fully specified) | 79.91 | 76.35 | 91.45 | 83.68
17 | SluU64 + SluD48 (guide 1 GGGCTCGAAGGGTCCTTGTAGC; guide 2 GAGAGCAGCGCAAGTGAGGAGG; guide RNA; listed as DNA, chemistry not fully specified) | 80.84 | 47.67 | 88.44 | 75.45
18 | SluU64 + SluD56 (guide 1 GGGCTCGAAGGGTCCTTGTAGC; guide 2 CCAGCCGGCTCCGCCCGCTTCG; guide RNA; listed as DNA, chemistry not fully specified) | 67.76 | 42.14 | 87.6 | 60.36
19 | SluU64 + SluD68 (guide 1 GGGCTCGAAGGGTCCTTGTAGC; guide 2 CCTGTAGCCTGTCAGCGAGTCG; guide RNA; listed as DNA, chemistry not fully specified) | 72.9 | 46.16 | 89.56 | 74.94
